Data on one compound can be found in ChEMBL document CHEMBL1154709, “Perspectives of P-glycoprotein modulating agents in oncology and neurodegenerative diseases: pharmaceutical, biological, and diagnostic potentials” (2010).

Molecules are shown by their SMILES.

For test [1], the system named is Homo sapiens. Kind of test: Increase in P-gp-substrate 99mTc]sestaMIBI accumulation in tumor and heart of human with metastatic cancer at 150 mg, iv by imaging analysis. The class given is functional.
Test [2] concerns Homo sapiens. Nature of the test: Increase in P-gp-substrate 99mTc]sestaMIBI accumulation in liver of human with metastatic cancer at 150 mg, iv by imaging analysis. The class given is functional.

Regarding `COc1cc2c(cc1OC)CN(CCc1ccc(NC(=O)c3cc(OC)c(OC)cc3NC(=O)c3cnc4ccccc4c3)cc1)CC2` [TARIQUIDAR], the Activity turned out to be 36% with Homo sapiens [1] and 128% with Homo sapiens [2].
